Data from patent US20090018134A1, “Compounds - 945” (AstraZeneca AB, priority 2007, published 2009).

biological target: T1, mTOR (Homo sapiens, UniProt P42345); experiment: In Vitro mTOR Kinase Assay (Echo), Test (a)(ii); assay type: biochemical; settings: read-out: mTOR Kinase Assay (Echo)
T1 construct: FLAG; made in house
How it was run: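 Inhibition of truncated mTOR (1362-2549, FLAG-tagged, purified from stably transfected HEK293 cells) is measured as reduced AlphaScreen signal from a phospho-T389-recognising antibody bound to the biotinylated peptide product. Kinase incubation lasts 2 hours at room temperature. Potency is given as IC50.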

T1 sequence (P42345 1362-2549): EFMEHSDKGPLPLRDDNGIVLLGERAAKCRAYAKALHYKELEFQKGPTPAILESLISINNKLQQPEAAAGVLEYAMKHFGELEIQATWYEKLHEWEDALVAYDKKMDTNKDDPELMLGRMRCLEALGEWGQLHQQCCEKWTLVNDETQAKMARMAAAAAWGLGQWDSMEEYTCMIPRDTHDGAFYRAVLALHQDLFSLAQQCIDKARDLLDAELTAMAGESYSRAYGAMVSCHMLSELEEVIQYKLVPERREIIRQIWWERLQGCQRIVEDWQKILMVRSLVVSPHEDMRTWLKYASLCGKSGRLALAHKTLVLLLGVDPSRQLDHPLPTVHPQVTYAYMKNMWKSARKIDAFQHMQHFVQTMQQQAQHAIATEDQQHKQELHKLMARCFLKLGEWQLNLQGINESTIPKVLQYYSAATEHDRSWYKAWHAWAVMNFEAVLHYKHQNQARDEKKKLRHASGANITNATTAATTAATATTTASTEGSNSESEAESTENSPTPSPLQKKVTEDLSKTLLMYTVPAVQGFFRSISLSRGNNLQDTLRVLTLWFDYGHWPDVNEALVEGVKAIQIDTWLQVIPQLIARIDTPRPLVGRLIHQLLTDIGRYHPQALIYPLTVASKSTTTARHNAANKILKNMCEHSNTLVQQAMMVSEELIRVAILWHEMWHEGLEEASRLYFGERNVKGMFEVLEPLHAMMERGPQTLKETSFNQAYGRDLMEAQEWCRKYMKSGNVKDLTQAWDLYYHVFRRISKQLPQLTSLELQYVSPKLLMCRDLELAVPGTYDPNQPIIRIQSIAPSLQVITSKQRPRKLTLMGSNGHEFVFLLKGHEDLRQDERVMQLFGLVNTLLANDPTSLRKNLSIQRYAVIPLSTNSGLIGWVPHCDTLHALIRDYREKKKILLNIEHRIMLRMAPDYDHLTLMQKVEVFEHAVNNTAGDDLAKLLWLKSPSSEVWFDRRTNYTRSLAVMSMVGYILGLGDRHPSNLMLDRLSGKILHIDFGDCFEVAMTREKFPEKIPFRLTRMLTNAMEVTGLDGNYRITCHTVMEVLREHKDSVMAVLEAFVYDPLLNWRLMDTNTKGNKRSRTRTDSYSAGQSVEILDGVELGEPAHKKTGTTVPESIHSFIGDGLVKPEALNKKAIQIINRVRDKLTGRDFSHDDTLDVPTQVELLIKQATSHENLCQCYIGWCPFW

Row | IC50 [nM] | SMILES
1 | 21.4 | C[C@H]1COCCN1c1cc(C2(S(=O)(=O)C3CC3)CC2)nc(-c2ccc(NC(=O)NCCN(C)C)cc2)n1 [Example 3f, 1-[4-[4-(1-cyclopropylsulfonylcyclopropyl)-6-[(3S)-3-methylmorpholin-4-yl]pyrimidin-2-yl]phenyl]-3-(2-dimethylaminoethyl)urea]
2 | 5.04 | CC(C)S(=O)(=O)C1(c2cc(N3CCOC[C@@H]3C)nc(-c3ccc(NC(=O)Nc4cnn(C)c4)cc3)n2)CC1 [Example 7m, 1-[4-[4-[(3S)-3-methylmorpholin-4-yl]-6-(1-propan-2-ylsulfonylcyclopropyl)pyrimidin-2-yl]phenyl]-3-(1-methylpyrazol-4-yl)urea]
3 | 0.604 | C[C@H]1COCCN1c1cc(C2(S(=O)(=O)C3CC3)CC2)nc(-c2ccc(NC(=O)Nc3ccn(C)n3)cc2)n1 [Example 3u, 1-[4-[4-(1-cyclopropylsulfonylcyclopropyl)-6-[(3S)-3-methylmorpholin-4-yl]pyrimidin-2-yl]phenyl]-3-(1-methylpyrazol-3-yl)urea]
4 | 2.27 | C[C@H]1COCCN1c1cc(C2(S(=O)(=O)C3CC3)CC2)nc(-c2ccc(NC(=O)NC(C)(C)CO)cc2)n1 [Example 3k, 1-[4-[4-(1-cyclopropylsulfonylcyclopropyl)-6-[(3S)-3-methylmorpholin-4-yl]pyrimidin-2-yl]phenyl]-3-(1-hydroxy-2-methyl-propan-2-yl)urea]
5 | 4.97 | C[C@H]1COCCN1c1cc(C2(S(=O)(=O)c3ccccc3C(F)(F)F)CC2)nc(-c2ccc(NC(=O)Nc3cnn(C)c3)cc2)n1 [Example 10m, 1-[4-[4-[(3S)-3-methylmorpholin-4-yl]-6-[1-[2-(trifluoromethyl)phenyl]sulfonylcyclopropyl]pyrimidin-2-yl]phenyl]-3-(1-methylpyrazol-4-yl)urea]
6 | 4.79 | C[C@H]1COCCN1c1cc(C2(S(=O)(=O)C3CC3)CC2)nc(-c2ccc(NC(=O)NC3COC3)cc2)n1 [Example 3t, 1-[4-[4-(1-cyclopropylsulfonylcyclopropyl)-6-[(3S)-3-methylmorpholin-4-yl]pyrimidin-2-yl]phenyl]-3-(oxetan-3-yl)urea]
7 | 18.3 | C[C@H]1COCCN1c1cc(C2(S(=O)(=O)c3ccccc3C(F)(F)F)CC2)nc(-c2ccc(NC(=O)NCCCO)cc2)n1 [Example 10l, 3-(3-hydroxypropyl)-1-[4-[4-[(3S)-3-methylmorpholin-4-yl]-6-[1-[2-(trifluoromethyl)phenyl]sulfonylcyclopropyl]pyrimidin-2-yl]phenyl]urea]

same assay, conditions: table of enzyme assay Test (a)(ii); read-out: Test (a)(ii) IC50

Row | IC50 [nM] | SMILES
8 | 21.3 | Cc1nn(C)cc1S(=O)(=O)C1(c2cc(N3CCOC[C@@H]3C)nc(-c3ccc(NC(=O)NC4CC4)cc3)n2)CC1 [Example 55a, 3-cyclopropyl-1-[4-[4-[1-(1,3-dimethylpyrazol-4-yl)sulfonylcyclopropyl]-6-[(3S)-3-methylmorpholin-4-yl]pyrimidin-2-yl]phenyl]urea]
9 | 5.57 | C[C@H]1COCCN1c1cc(C2(S(=O)(=O)c3ccccn3)CC2)nc(-c2ccc(NC(=O)NC(C)(C)CO)cc2)n1 [Example 28j, 3-(1-hydroxy-2-methylpropan-2-yl)-1-[4-[4-[(3S)-3-methylmorpholin-4-yl]-6-(1-pyridin-2-ylsulfonylcyclopropyl)pyrimidin-2-yl]phenyl]urea]
10 | 284 | C[C@H]1COCCN1c1cc(C2(S(=O)(=O)c3ccncc3)CC2)nc(-c2ccc(NC(=O)NC3(CO)CC3)cc2)n1 [Example 36cx, 3-[1-(hydroxymethyl)cyclopropyl]-1-[4-[4-[(3S)-3-methylmorpholin-4-yl]-6-(1-pyridin-4-ylsulfonylcyclopropyl)pyrimidin-2-yl]phenyl]urea]
11 | 29 | Cc1nn(C(F)F)c(C)c1S(=O)(=O)C1(c2cc(N3CCOC[C@@H]3C)nc(-c3ccc(NC(=O)NC4CC4)cc3)n2)CC1 [Example 75, 3-Cyclopropyl-1-[4-[4-[1-[1-(difluoromethyl)-3,5-dimethylpyrazol-4-yl]sulfonylcyclopropyl]-6-[(3S)-3-methylmorpholin-4-yl]pyrimidin-2-yl]phenyl]urea]
12 | 3.74 | C[C@H]1COCCN1c1cc(C2(S(=O)(=O)c3nccs3)CCC2)nc(-c2ccc(NC(=O)NCCCO)cc2)n1 [Example 98j, 3-(3-hydroxypropyl)-1-[4-[4-[(3S)-3-methylmorpholin-4-yl]-6-[1-(1,3-thiazol-2-ylsulfonyl)cyclobutyl]pyrimidin-2-yl]phenyl]urea]
13 | 140 | C[C@H]1COCCN1c1cc(C2(S(=O)(=O)c3ccc(F)cc3)CC2)nc(-c2cnc(NC(=O)Nc3cnn(C)c3)nc2)n1 [Example 14h, 1-[5-[4-[1-(4-fluorophenyl)sulfonylcyclopro-pyl]-6-[(3S)-3-methylmorpholin-4-yl]pyrimidin-2-yl]pyrimidin-2-yl]-3-(1-methylpyrazol-4-yl)urea]
14 | 3.46 | C[C@H]1COCCN1c1cc(C2(S(=O)(=O)c3ccncc3)CCC2)nc(-c2ccc(NC(=O)NCCO)cc2)n1 [Example 83, 3-(2-Hydroxyethyl)-1-[4-[4-[(3S)-3-methylmorpholin-4-yl]-6-(1-pyridin-4-ylsulfonylcyclobutyl)pyrimidin-2-yl]phenyl]urea]
15 | 12 | CCNC(=O)Nc1ccc(-c2nc(N3CCOC[C@@H]3C)cc(C3(S(=O)(=O)CCCO)CCC3)n2)cc1 [Example 43j, 1-ethyl-3-[4-[4-[1-(3-hydroxypropylsulfonyl)cyclobu-tyl]-6-[(3S)-3-methylmorpholin-4-yl]pyrimidin-2-yl]phenyl]urea]

The next lines start with the compound.

Row | SMILES | IC50 [nM]
16 | CCNC(=O)Nc1ccc(-c2nc(N3CCOCC3)cc(C3(S(=O)(=O)C4CC4)CC3)n2)cc1 [Example 13b, 1-[4-[4-(1-cyclopropylsulfonylcyclopropyl)-6-morpholin-4-ylpyrimidin-2-yl]phenyl]-3-ethylurea] | 3.7
17 | C[C@H]1COCCN1c1cc(C2(S(C)(=O)=O)CCCC2)nc(-c2ccc(NC(=O)NCCN(C)C)nc2)n1 [Example 14p, 3-(2-dimethylaminoethyl)-1-[5-[4-[(3S)-3-methylmorpholin-4-yl]-6-(1-methylsulfonylcyclopentyl)pyri-midin-2-yl]pyridin-2-yl]urea] | 537
18 | C[C@H]1COCCN1c1cc(C2(S(=O)(=O)C3CC3)CCNCC2)nc(-c2ccc(NC(=O)NCCO)cc2)n1 [Example 21b, 1-[4-[4-(4-cyclopropylsulfonylpiperidin-4-yl)-6-[(3S)-3-methylmorpholin-4-yl]pyrimidin-2-yl]phenyl]-3-(2-hydroxyethyl)urea] | 13.3
19 | C[C@H]1COCCN1c1cc(C2(S(=O)(=O)C3CC3)CC2)nc(-c2cnc(NC(=O)NC3CC3)nc2)n1 [Example 14w, 3-cyclopropyl-1-[5-[4-(1-cyclopropylsulfonylcyclopropyl)-6-[(3S)-3-methylmorpholin-4-yl]pyrimidin-2-yl]pyrimidin-2-yl]urea] | 208
20 | C[C@H]1COCCN1c1cc(C2(S(=O)(=O)c3ccc(F)cc3F)CC2)nc(-c2ccc(NC(=O)NC3CC3)cc2)n1 [Example 57a, 3-cyclopropyl-1-[4-[4-[1-(2,4-difluorophenyl)sulfonylcyclopro-pyl]-6-[(3S)-3-methylmorpholin-4-yl]pyrimidin-2-yl]phenyl]urea] | 10.4
21 | C[C@H]1COCCN1c1cc(C2(S(=O)(=O)C3CC3)CC2)nc(-c2ccc(NC(=O)NCCN(C)C)nc2)n1 [Example 14b, 1-[5-[4-(1-cyclopropylsulfonylcyclopropyl)-6-[(3S)-3-methylmorpholin-4-yl]pyrimidin-2-yl]pyridin-2-yl]-3-(2-dimethylaminoethyl)urea] | 1390
22 | C[C@H]1COCCN1c1cc(C2(S(=O)(=O)C3CCCCC3)CC2)nc(-c2ccc(NC(=O)NCCN(C)C)cc2)n1 [Example 26c, 1-[4-[4-(1-cyclohexylsulfonylcyclopropyl)-6-[(3S)-3-methylmorpholin-4-yl]pyrimidin-2-yl]phenyl]-3-(2-dimethylaminoethyl)urea] | 119
23 | CS(=O)(=O)C1(c2cc(N3CCOCC3)nc(-c3ccc(NC(=O)Nc4ncns4)cc3)n2)CC1 [Example 36s, 1-[4-[4-(1-methylsulfonylcyclopropyl)-6-morpholin-4-ylpyrimidin-2-yl]phenyl]-3-(1,2,4-thiadiazol-5-yl)urea] | 4.75
24 | C[C@H]1COCCN1c1cc(C2(S(=O)(=O)c3cc(F)cc(F)c3)CC2)nc(-c2ccc(NC(=O)Nc3ccc(C(F)(F)F)cc3)cc2)n1 [Example 19j, 1-[4-[4-[1-(3,5-difluorophenyl)sulfonylcyclopro-pyl]-6-[(3S)-3-methylmorpholin-4-yl]pyrimidin-2-yl]phenyl]-3-[4-(trifluoromethyl)phenyl]urea] | 19.9
25 | O=C(NCCO)Nc1ccc(-c2nc(N3CCOCC3)cc(C3(S(=O)(=O)C4CC4)CCC3)n2)cc1 [Example 13r, 1-[4-[4-(1-cyclopropylsulfonylcyclobutyl)-6-morpholin-4-ylpyrimidin-2-yl]phenyl]-3-(2-hydroxyethyl)urea] | 1.98
26 | C[C@H]1COC[C@H](C)N1c1cc(C2(S(=O)(=O)c3ccccc3)CC2)nc(-c2ccc(NC(=O)NC3CC3)cc2)n1 [Example 93, 1-[4-[4-[1-(Benzenesulfonyl)cyclopropyl]-6-[(3S,5S)-3,5-dimethylmorpholin-4-yl]pyrimidin-2-yl]phenyl]-3-cyclopropylurea] | 5.05
27 | CCCNC(=O)Nc1ccc(-c2nc(N3CCOC[C@@H]3C)cc(C3(S(=O)(=O)c4cc(F)cc(F)c4)CC3)n2)cc1 [Example 19h, 1-[4-[4-[1-(3,5-difluorophenyl)sulfonylcyclopro-pyl]-6-[(3S)-3-methylmorpholin-4-yl]pyrimidin-2-yl]phenyl]-3-propylurea] | 2.46
28 | CCNC(=O)Nc1ccc(-c2nc(N3CCOCC3C(N)=O)cc(C3(S(=O)(=O)c4ccccc4)CC3)n2)cc1 (stereo not shown) [Example 89, 4-[6-[1-(Benzenesulfonyl)cyclopropyl]-2-[4-(ethylcarbamoylamino)phenyl]pyrimidin-4-yl]morpholine-3-carboxamide] | 485
